Data reported in patent US5849326A, “Method for treating neuronal diseases via administration of 2-acylaminopropanol derivatives” (Seikagaku Corporation, priority 1993, dated 1998).

Assays:
physchem = settings: physiological saline
[1] = molecular target: T1, GlcCer (glucosylceramide) synthase (Rattus norvegicus, UniProt Q9R0E0); assay: Enzyme activity in treated cerebral cortex culture: GlcCer synthase; assay type: cell-based; settings: culture treated with 15 μM for 40 hours; read-out: Accelerating activity when enzyme activity of control is defined as 100%: GlcCer-synthase
T1 construct: primary culture of cerebral cortex tissue specimens of Wister albino rats; endogenous in cells; host or cells: primary culture of rat (Wistar) cerebral cortex, sonicated after 40 h with compound
T1 sequence (Q9R0E0 1-394): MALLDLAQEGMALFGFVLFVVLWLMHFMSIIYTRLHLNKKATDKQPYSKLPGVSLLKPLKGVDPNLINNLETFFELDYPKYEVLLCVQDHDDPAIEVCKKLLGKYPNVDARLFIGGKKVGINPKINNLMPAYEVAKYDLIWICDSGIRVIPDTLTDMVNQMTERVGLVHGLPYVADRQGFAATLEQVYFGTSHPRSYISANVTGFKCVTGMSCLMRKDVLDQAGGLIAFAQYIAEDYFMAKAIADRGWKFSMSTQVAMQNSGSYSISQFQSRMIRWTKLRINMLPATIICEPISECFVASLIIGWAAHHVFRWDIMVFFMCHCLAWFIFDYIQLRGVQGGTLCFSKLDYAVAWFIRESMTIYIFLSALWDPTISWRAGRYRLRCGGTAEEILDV
Experimental: After the mixture was cultured for 40 hours, the resulting culture was harvested and pulverized in a homogenized buffer (50 mM Hepes, 0.32M sucrose) by using a chip type sonicator to prepare an enzyme source.
After ^3 H-GlcCer which was a reaction product was extracted with t-butyl methyl ether, the extract was concentrated and evaporated to dryness, and its radioactivity was measured.

## CCCCCCCCCC(=O)N[C@@H](CN1CCOCC1)[C@@H](O)c1ccccc1 [L-threo-PDMP, 1-phenyl-2-decanoylamino-3-morpholino-1-propanol]
physchem
  solubility: ≤ 500 µg/mL
[1]
  enzyme activity relative to control at 15 µM: 122%
